20 compounds from patent US8093253B2, “Leukotriene B4 inhibitors” (Hoffmann-La Roche Inc., priority 2008, dated 2012) can be followed below.

One data set concerns BLT1 and BLT2 receptors (HL-60 cells). Description: Ca2+ flux assay for LTB4 antagonist assay (HL-60 FLIPR). It is filed as cell-based, Human. The settings on record: Retinoic acid induced HL-60 cells, inhibition of LTB4-induced Ca2+ flux, 30 min preincubation; read-out: LTB4 antagonism (HL-60 FLIPR) IC50. The procedure:
Ca^2+ Flux Assay for LTB4 Antagonist Assay
Human leukemia HL-60 cells endogenously expressing BLT1 and BLT2 receptors were cultured in RPMI-1640 medium supplemented with 20% fetal bovine serum, 2 mM glutamine, 100 U/mL penicillin and 100 ug/mL streptomycin.
Seventy two hours prior to experiment cells are counted using ViaCount reagent, centrifuged and resuspended at 2.0×10^5 cells/mL density with the complete growth media containing 1 μM Retinoic Acid (Sigma).
On a day of the experiment loading buffer (Calcium-3 Assay Kit, Molecular Devices) was prepared by dissolving the contents of one vial (Express Kit) into 500 mL Hank's Balanced Salt Solution containing 20 mM HEPES and 5 mM probenecid. Equal volume of the loading buffer was mixed with the replacement buffer (Hank's Balanced Salt Solution containing 20 mM HEPES, 0.05% BSA and 5 mM probenecid). Retinoic Acid induced HL-60 cells were counted using ViaCount reagent, centrifuged and resuspended at 2.0×10^6 cells/mL density with the loading buffer/replacement buffer, dispensed into 384 well black/clear microplates (Falcon)(25 μL/well) and placed in a 37° C./5% CO2 incubator for 1 hour.
During the incubation, test compounds were prepared at 6× the desired concentration in HBSS/20 mM HEPES/0.05% BSA as well as LTB4 (Biomol) was prepared at 2.2× concentration in HBSS/20 mM HEPES/0.5% BSA buffer.
After the incubation, both the cell and compound plates were brought to the FLIPR and 5 μL of the diluted compounds were transferred to the cell plates by the FLIPR. Plates were then incubated for 30 min at room temperature. After the ½ hour incubation, plates were returned to the FLIPR and 25 μL of 2.2×LTB4 was added to the cell plates. During the assay, fluorescence readings were taken simultaneously from all 384 wells of the cell plate every 1.5 seconds. Five readings were taken to establish a stable baseline, then 25 μL (LTB4) of sample was rapidly and simultaneously added to each well of the cell plate. The fluorescence was continuously monitored before, during and after sample addition for a total elapsed time of 100 seconds. Responses (increase in peak fluorescence) in each well following agonist addition was determined. The initial fluorescence reading from each well, prior to ligand stimulation, was used a zero baseline value for the data from that well. The responses are expressed as % inhibition of the neutral control (neural control: wells that received buffer plus DMSO but no test compound).
On the technique in general: Calcium flux is commonly read through the fluorescence of an indicator in the cells.
Consider `CS(=O)(=O)c1cc(OCCCCCCc2cccc(OCCCC(=O)O)c2CCC(=O)O)cc(Oc2ccc(Cl)cc2)c1` [Example 23, 4-(2-(2-Carboxy-ethyl)-3-{6-[3-(4-chloro-phenoxy)-5-methanesulfonyl-phenoxy]-hexyl}-phenoxy)-butyric Acid], for which the IC50 is 361 nM.

In the case of `CS(=O)(=O)c1cc(OCCCCCCc2cccc(OCCCC(=O)O)c2CCC(=O)O)cc(-c2ccc(F)cc2)c1` [Example 8, 4-{2-(2-Carboxy-ethyl)-3-[6-(4′-fluoro-5-methanesulfonyl-biphenyl-3-yloxy)-hexyl]-phenoxy}-butyric Acid], the IC50 worked out at 0.38 nM.

For `COc1ccc(-c2cc(OCCCCCCc3cccc(OCCCC(=O)O)c3CCC(=O)O)cc(S(C)(=O)=O)c2)cc1` [Example 29, 4-{2-(2-Carboxy-ethyl)-3-[6-(5-methanesulfonyl-4′-methoxy-biphenyl-3-yloxy)-hexyl]-phenoxy}-butyric Acid], the IC50 was 0.12 nM.

`CCS(=O)(=O)c1cc(OCCCCCCc2cccc(OCCCC(=O)O)c2CCC(=O)O)cc(-c2ccc3c(c2)OCO3)c1` [Example 47, 4-[3-[6-(3-Benzo[1,3]dioxol-5-yl-5-ethanesulfonyl-phenoxy)-hexyl]-2-(2-carboxy-ethyl)-phenoxy]-butyric Acid]: the IC50 is 0.27 nM.

For the compound `CCc1ccc(-c2cc(OCCCCCCc3cccc(OCCCC(=O)O)c3CCC(=O)O)cc(S(C)(=O)=O)c2)cc1` [Example 13, 4-{2-(2-Carboxy-ethyl)-3-[6-(4′-ethyl-5-methanesulfonyl-biphenyl-3-yloxy)-hexyl]-phenoxy}-butyric Acid], the IC50 is 0.91 nM.

Turning to `CC(C)S(=O)(=O)c1cc(OCCCCCCc2cccc(OCCCC(=O)O)c2CCC(=O)O)cc(-c2ccc(F)cc2)c1` [Example 60, 4-[2-(2-Carboxy-ethyl)-3-[6-(5-(propane-2-sulfonyl)-4′-fluoro-biphenyl-3-yloxy)-hexyl]-phenoxy]-butyric Acid], the IC50 is 15.3 nM.

On to `CS(=O)(=O)c1cc(OCCCCCCc2cccc(OCCCC(=O)O)c2CCC(=O)O)cc(-c2ccc3scnc3c2)c1` [Example 45, 4-[3-[6-(3-Benzothiazol-5-yl-5-methanesulfonyl-phenoxy)-hexyl]-2-(2-carboxy-ethyl)-phenoxy]-butyric Acid], for which the IC50 is 0.2 nM.

For the compound `CS(=O)(=O)c1cc(OCCCCCCc2cccc(OCCCC(=O)O)c2CCC(=O)O)cc(-c2cccc(F)c2)c1` [Example 27, 4-{2-(2-Carboxy-ethyl)-3-[6-(3′-fluoro-5-methanesulfonyl-biphenyl-3-yloxy)-hexyl]-phenoxy}-butyric Acid], the IC50 was 0.9 nM.

In the case of `CS(=O)(=O)c1cc(Nc2ccccc2)cc(OCCCCCCc2cccc(OCCCC(=O)O)c2CCC(=O)O)c1` [Example 26, 4-{2-(2-Carboxy-ethyl)-3-[6-(3-methanesulfonyl-5-phenylamino-phenoxy)-hexyl]-phenoxy}-butyric Acid], the IC50 was 47.1 nM.

Turning to `CS(=O)(=O)c1cc(OCCCCCCc2cccc(OCCCC(=O)O)c2CCC(=O)O)cc(-c2ccc3c(c2)OCCO3)c1` [Example 41, 4-(2-(2-Carboxy-ethyl)-3-{6-[3-(2,3-dihydro-benzo[1,4]dioxin-6-yl)-5-methanesulfonyl-phenoxy]-hexyl}-phenoxy)-butyric Acid], the IC50 is 0.47 nM.

`CCS(=O)(=O)c1cc(OCCCCCCc2cccc(OCCCC(=O)O)c2CCC(=O)O)cc(-c2ccc(F)cc2)c1` [Example 51, 4-[2-(2-Carboxy-ethyl)-3-[6-(5-ethanesulfonyl-4′-fluoro-biphenyl-3-yloxy)-hexyl]-phenoxy]-butyric Acid]: the IC50 amounted to 2.8 nM.

Regarding `CS(=O)(=O)c1cc(OCCCCCCc2cccc(OCCCC(=O)O)c2CCC(=O)O)cc(-c2ccccc2)c1` [Example 28, 4-{2-(2-Carboxy-ethyl)-3-[6-(5-methanesulfonyl-biphenyl-3-yloxy)-hexyl]-phenoxy}-butyric Acid], the IC50 is 0.38 nM.

On to `CS(=O)(=O)c1cc(OCCCCCCc2cccc(OCCCC(=O)O)c2CCC(=O)O)cc(-c2ccc(O)cc2)c1` [Example 5, 4-{2-(2-Carboxy-ethyl)-3-[6-(4′-hydroxy-5-methanesulfonyl-biphenyl-3-yloxy)-hexyl]-phenoxy}-butyric Acid], for which the IC50 amounted to 1.22 nM.

As for `CS(=O)(=O)c1cc(OCCCCCCc2cccc(OCCCC(=O)O)c2CCC(=O)O)cc(-c2ccsc2)c1` [Example 12, 4-{2-(2-Carboxy-ethyl)-3-[6-(3-methanesulfonyl-5-thiophen-3-yl-phenoxy)-hexyl]-phenoxy}-butyric Acid], the half-inhibitory concentration (IC50) is 0.44 nM.

As to `CCS(=O)(=O)c1cc(OCCCCCCc2cccc(OCCCC(=O)O)c2CCC(=O)O)cc(-c2ccsc2)c1` [Example 52, 4-[2-(2-Carboxy-ethyl)-3-[6-(3-ethanesulfonyl-5-thiophen-3-yl-phenoxy)-hexyl]-phenoxy]-butyric Acid], the IC50 was determined as 1.04 nM.

On to `CS(=O)(=O)c1cc(OCCCCCCc2cccc(OCCCC(=O)O)c2CCC(=O)O)cc(-c2ccc3c(c2)OCO3)c1` [Example 40, 4-[3-[6-(3-Benzo[1,3]dioxol-5-yl-5-methanesulfonyl-phenoxy)-hexyl]-2-(2-carboxy-ethyl)-phenoxy]-butyric Acid], for which the IC50 was determined as 0.09 nM.

As for `Cc1ccc(-c2cc(OCCCCCCc3cccc(OCCCC(=O)O)c3CCC(=O)O)cc(S(C)(=O)=O)c2)cc1F` [Example 11, 4-{2-(2-Carboxy-ethyl)-3-[6-(3′-fluoro-5-methanesulfonyl-4′-methyl-biphenyl-3-yloxy)-hexyl]-phenoxy}-butyric Acid], the IC50 is 0.32 nM.

Turning to `CCCS(=O)(=O)c1cc(OCCCCCCc2cccc(OCCCC(=O)O)c2CCC(=O)O)cc(-c2ccc(F)cc2)c1` [Example 55, 4-[2-(2-Carboxy-ethyl)-3-[6-(5-(propane-1-sulfonyl)-4′-fluoro-biphenyl-3-yloxy)-hexyl]-phenoxy]-butyric Acid], the concentration for half-maximal inhibition (IC50) was found to be 63.8 nM.

As for `CS(=O)(=O)c1cc(OCCCCCCc2cccc(OCCCC(=O)O)c2CCC(=O)O)cc(-c2ccc3c(c2)OC(F)(F)O3)c1` [Example 46, 4-(2-(2-Carboxy-ethyl)-3-{6-[3-(2,2-difluoro-benzo[1,3]dioxol-5-yl)-5-methanesulfonyl-phenoxy]-hexyl}-phenoxy)-butyric Acid], the concentration for half-maximal inhibition (IC50) is 0.24 nM.

For the compound `CS(=O)(=O)c1cc(OCCCCCCc2cccc(OCCCC(=O)O)c2CCC(=O)O)cc(-c2cscn2)c1` [Example 21, 4-{2-(2-Carboxy-ethyl)-3-[6-(3-methanesulfonyl-5-thiazol-4-yl-phenoxy)-hexyl]-phenoxy}-butyric Acid], the 50% inhibitory concentration (IC50) is 261 nM.

Tested on in the next data set: not given
Assay: not given
Conditions: not given
`CCS(=O)(=O)c1cc(OCCCCCCc2cccc(OCCCC(=O)O)c2CCC(=O)O)cc(-c2ccc3c(c2)OCO3)c1` [Example 47, 4-[3-[6-(3-Benzo[1,3]dioxol-5-yl-5-ethanesulfonyl-phenoxy)-hexyl]-2-(2-carboxy-ethyl)-phenoxy]-butyric Acid] came in with a melting point of 134 to 135 °C.

In general, IC50 refers to the concentration that gives 50% inhibition. As usually defined, the melting point is the temperature, or range, at which the solid turns liquid.
